{"source": "patent US8728470B2", "about": "“CAB molecules” (Danisco US Inc., priority 2004, dated 2014)", "assay": "PK and tissue distribution of GC-Mel/Mel at various intervals after CAB 1.11i in TLS174T xenograft mice", "type": "in vivo, Ncr athymic nude mice", "method": "We assessed the tumor retention characteristics of CAB1.11i by monitoring the formation of Mel from the administration of GC-Mel. Dosing solutions were prepared on the day of dosing, within 60 minutes of administration.\nThe concentration of the formulation of GC-Mel in bicarbonate/sucrose was based on average […] weight, the desired volume of administration and a dose level of 150 mg/kg. GC-Mel was weighed out and, based on this weight, the appropriate amount of sodium bicarbonate to neutralize all 3 equivalents of the three carboxylic acid sites of GC-Mel was determined. Vehicle was prepared in the required volume by adding the precalculated sodium bicarbonate solution in 5% aqueous sucrose. Vehicle was prechilled at 4° C. Cold vehicle was added to the GC-Mel powder and the mixture was vortexed and sonicated to achieve speedy dissolution.\nThe animals were be implanted subcutaneously on the flank with 2×10^6 TLS174T cells, a human colorectal tumor line, in 100 μl of phosphate buffered saline. Beginning approximately one week after tumor cell implant, tumors were measured every 3 to 4 days. When the tumors reached approximately 100-250 mm^3, 156 animals were selected based on tumor size and randomized into 7 groups, resulting in a non-significant difference in the mean tumor size between groups at the start of the experiment.\nMice were warmed with a heating lamp and heating pad, placed in a restrainer and the test compounds were administered by bolus intravenous injection via the tail vein. For the blood sampling, all mice were anesthetized by isoflurane inhalation at the time of sample collection. Blood was collected by cardiac puncture into tubes containing EDTA and placed on ice. Tubes were centrifuged at 4000 RPM for two minutes. The plasma fraction was removed into a pre-labeled microfuge tube and placed on dry ice or liquid nitrogen. Sample concentrations were determined.\nTissue samples were rinsed 1× in phosphate buffered saline to remove blood. The samples were snap frozen using liquid nitrogen or dry ice. Tissue samples were stored at −70° C. prior to analysis. […]", "data": [{"smiles": "N[C@@H](Cc1ccc(N(CCCl)CCCl)cc1)C(=O)O", "note": "[Mel, Melphalan]", "values": [{"measurement": "plasma Mel level", "setting": "GC-Mel 150 mg/kg given 96 hrs after CAB 1.11i 1 mg/kg", "result": "decreased to near background (concomitant) levels"}, {"measurement": "plasma and kidney exposure to Mel (AUC)", "setting": "with increased interval between CAB 1.11i and GC-Mel doses, FIG. 17", "result": "decreased"}, {"measurement": "systemic melphalan exposure (AUC)", "setting": "with increasing interval, FIG. 18", "result": "decreased"}]}]}
